Results: patent US20260007599A1, “TICAGRELOR IV FORMULATIONS FOR USE IN THE TREATMENT OF GRAM-POSITIVE BACTEREMIA” (Hyloris Developments SA, priority 2023, published 2026)

Test: 3 months stability study at pH 7, 7.5 and 8 in amber glass vials
Format: physicochemical
Parameters: Assay: unit not given here
Conditions: for Acetal impurity / Amine impurity / Assay / Description / Regiomer / Sum impurities >0.05 / Total (impurity) / Triol impurity / pH: amber vials, HPβCD 40% w/w
Procedure: To optimize the HPβCD concentration and the pH of the solution for intravenous use, a 12 week/3 months stability study was conducted. […] Its stability was tested at regular intervals.
A comparison of stability profile at 3 different pH-7, 7.5 and 8—was carried out as below, the manufacturing process for all 3 formulations was kept constant with buffer strength at 19 mM.

[1] = 19 mM pH 7 phosphate buffer, 1 M
[2] = 19 mM pH 7 phosphate buffer, 2 M
[3] = 19 mM pH 7 phosphate buffer, 3 M
[4] = 19 mM pH 7 phosphate buffer, T0
[5] = 19 mM pH 7.5 phosphate buffer, 1 M
[6] = 19 mM pH 7.5 phosphate buffer, 2 M
[7] = 19 mM pH 7.5 phosphate buffer, 3 M
[8] = 19 mM pH 7.5 phosphate buffer, T0
[9] = 19 mM pH 8 phosphate buffer, 1 M
[10] = 19 mM pH 8 phosphate buffer, 2 M
[11] = 19 mM pH 8 phosphate buffer, 3 M
[12] = 19 mM pH 8 phosphate buffer, T0

**Q.** For `CCCSc1nc(N[C@@H]2C[C@H]2c2ccc(F)c(F)c2)c2nnn([C@@H]3C[C@H](OCCO)[C@@H](O)[C@H]3O)c2n1` [ticagrelor, (1S,2S,3R,5S)-3-{7-[(1R,2S)-2-(3,4-difluorophenyl)cyclopropylamino]5-(propylthio)-3H-(1,2,3)triazolo (4,5-D)pyrimidin-3-yl}-5-(2 hydroxyethoxy) cyclopentane-1,2-diol], which Acetal impurity [1] is on record?
**A.** The Acetal impurity was 0.05%.

**Q.** And the Amine impurity [1]?
**A.** Its Amine impurity is 0.04%.

**Q.** What about the Assay [1] of the same molecule?
**A.** The Assay was 99.73.

**Q.** What about the Description [1] of the same molecule?
**A.** The Description was “clear”.

**Q.** And the Regiomer [1]?
**A.** Its Regiomer is 0.03%.

**Q.** And the “Sum impurities >0.05” value [1]?
**A.** Its value is 0.05%.

**Q.** And the “Total (impurity)” value [1]?
**A.** The value was 0.27%.

**Q.** What about the Triol impurity [1] of the same molecule?
**A.** Its Triol impurity is 0.02%.

**Q.** And the pH [1]?
**A.** Its pH is 7.34.

**Q.** What about the Acetal impurity [2] of the same molecule?
**A.** The Acetal impurity was 0.05%.

**Q.** And the Amine impurity [2]?
**A.** The Amine impurity was 0.04%.

**Q.** And the Assay [2]?
**A.** Its Assay is 99.81.

**Q.** What about the Description [2] of the same molecule?
**A.** Its Description is “clear”.

**Q.** What about the Regiomer [2] of the same molecule?
**A.** Its Regiomer is 0.06%.

**Q.** And the “Sum impurities >0.05” value [2]?
**A.** Its value is 0.11%.

**Q.** What about the “Total (impurity)” value [2] of the same molecule?
**A.** The value was 0.34%.

**Q.** And the Triol impurity [2]?
**A.** Its Triol impurity is 0.04%.

**Q.** And the pH [2]?
**A.** Its pH is 7.34.

**Q.** What about the Acetal impurity [3] of the same molecule?
**A.** Its Acetal impurity is 0.05%.

**Q.** And the Amine impurity [3]?
**A.** Its Amine impurity is 0.06%.

**Q.** What about the Assay [3] of the same molecule?
**A.** The Assay was 98.51.

**Q.** And the Description [3]?
**A.** The Description was “clear”.

**Q.** And the Regiomer [3]?
**A.** Its Regiomer is 0.11%.

**Q.** And the “Sum impurities >0.05” value [3]?
**A.** Its value is 0.22%.

**Q.** And the “Total (impurity)” value [3]?
**A.** Its value is 0.40%.

**Q.** What about the Triol impurity [3] of the same molecule?
**A.** Its Triol impurity is 0.04%.

**Q.** What about the pH [3] of the same molecule?
**A.** Its pH is 7.30.

**Q.** What about the Acetal impurity [4] of the same molecule?
**A.** Its Acetal impurity is 0.05%.

**Q.** What about the Amine impurity [4] of the same molecule?
**A.** Its Amine impurity is 0.04%.

**Q.** What about the Assay [4] of the same molecule?
**A.** Its Assay is 98.95.

**Q.** What about the Description [4] of the same molecule?
**A.** The Description was “clear”.

**Q.** What about the Regiomer [4] of the same molecule?
**A.** Its Regiomer is 0.00%.

**Q.** What about the “Sum impurities >0.05” value [4] of the same molecule?
**A.** Its value is 0.22%.

**Q.** And the “Total (impurity)” value [4]?
**A.** The value was 0.41%.

**Q.** And the Triol impurity [4]?
**A.** Its Triol impurity is 0.05%.

**Q.** What about the pH [4] of the same molecule?
**A.** Its pH is 7.33.

**Q.** And the Acetal impurity [5]?
**A.** The Acetal impurity was 0.05%.

**Q.** And the Amine impurity [5]?
**A.** The Amine impurity was 0.05%.

**Q.** What about the Assay [5] of the same molecule?
**A.** The Assay was 104.47.

**Q.** And the Description [5]?
**A.** Its Description is “clear”.

**Q.** And the Regiomer [5]?
**A.** The Regiomer was 0.01%.

**Q.** What about the “Sum impurities >0.05” value [5] of the same molecule?
**A.** Its value is 0.14%.

**Q.** What about the “Total (impurity)” value [5] of the same molecule?
**A.** Its value is 0.32%.

**Q.** What about the Triol impurity [5] of the same molecule?
**A.** Its Triol impurity is 0.05%.

**Q.** And the pH [5]?
**A.** The pH was 7.50.

**Q.** And the Acetal impurity [6]?
**A.** The Acetal impurity was 0.05%.

**Q.** And the Amine impurity [6]?
**A.** Its Amine impurity is 0.05%.

**Q.** What about the Assay [6] of the same molecule?
**A.** The Assay was 102.59.

**Q.** What about the Description [6] of the same molecule?
**A.** The Description was “clear”.

**Q.** What about the Regiomer [6] of the same molecule?
**A.** Its Regiomer is 0.04%.

**Q.** What about the “Sum impurities >0.05” value [6] of the same molecule?
**A.** Its value is 0.15%.

**Q.** And the “Total (impurity)” value [6]?
**A.** Its value is 0.29%.

**Q.** What about the Triol impurity [6] of the same molecule?
**A.** The Triol impurity was 0.05%.

**Q.** And the pH [6]?
**A.** Its pH is 7.48.

**Q.** And the Acetal impurity [7]?
**A.** The Acetal impurity was 0.05%.

**Q.** What about the Amine impurity [7] of the same molecule?
**A.** The Amine impurity was 0.05%.

**Q.** And the Assay [7]?
**A.** Its Assay is 102.31.

**Q.** What about the Description [7] of the same molecule?
**A.** Its Description is “clear”.

**Q.** And the Regiomer [7]?
**A.** Its Regiomer is 0.08%.

**Q.** What about the “Sum impurities >0.05” value [7] of the same molecule?
**A.** Its value is 0.23%.

**Q.** And the “Total (impurity)” value [7]?
**A.** The value was 0.41%.

**Q.** What about the Triol impurity [7] of the same molecule?
**A.** The Triol impurity was 0.04%.

**Q.** And the pH [7]?
**A.** The pH was 7.55.

**Q.** What about the Acetal impurity [8] of the same molecule?
**A.** The Acetal impurity was 0.05%.

**Q.** What about the Amine impurity [8] of the same molecule?
**A.** Its Amine impurity is 0.04%.

**Q.** What about the Assay [8] of the same molecule?
**A.** Its Assay is 104.27.

**Q.** And the Description [8]?
**A.** Its Description is “clear”.

**Q.** What about the Regiomer [8] of the same molecule?
**A.** The Regiomer was 0.00%.

**Q.** What about the “Sum impurities >0.05” value [8] of the same molecule?
**A.** Its value is 0.11%.

**Q.** And the “Total (impurity)” value [8]?
**A.** Its value is 0.31%.

**Q.** And the Triol impurity [8]?
**A.** The Triol impurity was 0.04%.

**Q.** What about the pH [8] of the same molecule?
**A.** Its pH is 7.40.

**Q.** What about the Acetal impurity [9] of the same molecule?
**A.** The Acetal impurity was 0.05%.

**Q.** What about the Amine impurity [9] of the same molecule?
**A.** Its Amine impurity is 0.05%.

**Q.** What about the Assay [9] of the same molecule?
**A.** Its Assay is 105.88.

**Q.** And the Description [9]?
**A.** Its Description is “clear”.

**Q.** And the Regiomer [9]?
**A.** Its Regiomer is 0.01%.

**Q.** And the “Sum impurities >0.05” value [9]?
**A.** Its value is 0.09%.

**Q.** What about the “Total (impurity)” value [9] of the same molecule?
**A.** Its value is 0.26%.

**Q.** What about the Triol impurity [9] of the same molecule?
**A.** Its Triol impurity is 0.03%.

**Q.** What about the pH [9] of the same molecule?
**A.** The pH was 8.10.

**Q.** And the Acetal impurity [10]?
**A.** Its Acetal impurity is 0.05%.

**Q.** And the Amine impurity [10]?
**A.** Its Amine impurity is 0.05%.

**Q.** What about the Assay [10] of the same molecule?
**A.** The Assay was 105.46.

**Q.** And the Description [10]?
**A.** Its Description is “clear”.

**Q.** And the Regiomer [10]?
**A.** Its Regiomer is 0.03%.

**Q.** And the “Sum impurities >0.05” value [10]?
**A.** The value was 0.15%.

**Q.** What about the “Total (impurity)” value [10] of the same molecule?
**A.** Its value is 0.32%.

**Q.** And the Triol impurity [10]?
**A.** Its Triol impurity is 0.05%.

**Q.** And the pH [10]?
**A.** The pH was 8.04.

**Q.** And the Acetal impurity [11]?
**A.** Its Acetal impurity is 0.05%.

**Q.** And the Amine impurity [11]?
**A.** Its Amine impurity is 0.07%.

**Q.** And the Assay [11]?
**A.** Its Assay is 104.46.

**Q.** And the Description [11]?
**A.** Its Description is “clear”.

**Q.** And the Regiomer [11]?
**A.** The Regiomer was 0.06%.

**Q.** And the “Sum impurities >0.05” value [11]?
**A.** Its value is 0.23%.

**Q.** What about the “Total (impurity)” value [11] of the same molecule?
**A.** Its value is 0.37%.

**Q.** And the Triol impurity [11]?
**A.** The Triol impurity was 0.05%.

**Q.** What about the pH [11] of the same molecule?
**A.** The pH was 8.03.

**Q.** And the Acetal impurity [12]?
**A.** The Acetal impurity was 0.05%.

**Q.** And the Amine impurity [12]?
**A.** Its Amine impurity is 0.04%.

**Q.** And the Assay [12]?
**A.** The Assay was 103.25.

**Q.** What about the Description [12] of the same molecule?
**A.** The Description was “clear”.

**Q.** What about the Regiomer [12] of the same molecule?
**A.** Its Regiomer is 0.00%.

**Q.** And the “Sum impurities >0.05” value [12]?
**A.** Its value is 0.25%.

**Q.** And the “Total (impurity)” value [12]?
**A.** Its value is 0.43%.

**Q.** What about the Triol impurity [12] of the same molecule?
**A.** The Triol impurity was 0.06%.

**Q.** And the pH [12]?
**A.** The pH was 8.07.

**Q.** And the “stability of ticagrelor solution in HPβCD (conclusion)” value (pH range of 7 to 8)?
**A.** The value was “stable”.
